# Patent publication US20210353749A1, “GUANABENZ AS AN ADJUVANT FOR IMMUNOTHERAPY” (UNIVERSITÉ CATHOLIQUE DE LOUVAIN, priority 2018, published 2021)
# Legend:
# Format in all cases: in vivo, mouse
# [1] = test system: T429.11 transplanted tumor; experiment: TiRP-derived T429.11 transplanted melanoma model
# Method: TiRP-derived T429.11 transplanted melanoma model: T429.11 clone was derived from an induced Amela TiRP tumor referred to as T429. It was cloned from the T429 induced melanoma primary tumor line. Two million of T429.11 tumor cells were injected subcutaneously into recipient mice for tumor establishment (Zhu et al, Nat Commun 2017, 10; 8(1):1404).
# (§1) T cells were incubated with guanabenz (10, 20, or 40 μM) for 16 h to 24 h as indicated. Mice received a daily intra-peritoneal injection of guanabenz (5 mg/kg) or vehicle (PBS) from the day of randomization (and the day of ACT when applicable) until the day of sacrifice.
# The T429.11 transplanted melanoma model was previously shown not to respond to anti-PD-1 and anti-CTLA4 therapy (Zhu et al., Nature communications. Nov. 10 2017; 8(1):1404). T429.11 transplanted tumor bearing mice received daily injections of guanabenz (5 mg/kg, i.p.) or vehicle (PBS, i.p.) from the day when the tumor size was around 1000 mm^3 (day 1) until the day of sacrifice (day 6). […] As shown on FIG. 2B, the decreased tumor growth was accompanied with an increased tumor infiltration of CD8^+ T cells.
# TiRP tumor [2] = experiment: TiRP melanoma model with adoptive cell transfer of activated P1A-specific CD8+ T cells
# Source text: TiRP mice: TiRP mice have been created by crossing Ink4a/Arf^flox/flox mice with mice carrying a transgenic construct controlled by the tyrosinase promoter and driving the expression of H-Ras^12V and Trap1a which encodes a MAGE-type tumor antigen P1A; the promoter is separated from the coding region by a stop cassette made of a floxed self-deleting CreER (Huijbers et al., 2006, Cancer Res 66, 3278-3286). Those mice were backcrossed to a B10.D2 background and bred to homozygosity. TCRP1A mice heterozygous for the H-2Ld/P1A35-43-specific TCR transgene were kept on the B10.D2; Rag1^−/− background (Shanker et al., 2004, J Immunol 172, 5069-5077). All mice used in this study were produced under specific pathogen free (SPF) conditions at the animal facility of the Ludwig Institute for Cancer Research. All the rules concerning animal welfare have been respected according to the 2010/63/EU Directive. All procedures were performed with the approval of the local Animal Ethical Committee, with reference 2015/UCL/MD/15.
# A fresh solution of 40H-Tamoxifen was prepared by dissolving 40H-Tamoxifen (Imaginechem) in 100% ethanol and mineral oil (ratio 1:9) followed by 30-min sonication, and injected subcutaneously (2 mg/200 μL per mouse) in the neck area of gender-matched 7 weeks old TiRP mice. Tumor appearance was monitored daily and tumors were measured three times/week. Tumor volume (in mm^3) was calculated by the following formula: Volume=width^2×length/2. Tumor-bearing TiRP mice were randomized based on the tumor size when average volume was 400 mm^3, 500 mm^3 or 1000 mm^3 as indicated.
# as §1
# For the adoptive cell transfer (ACT), P1A-specific (TCRP1A) CD8^+ T cells were isolated from spleens and lymph nodes of TCRP1A mice as described hereinabove, and stimulated in vitro by co-culture with irradiated (10.000 rads) L1210-P1A-B7.1 cells (Gajewski et al., 1995, J Immunol 154, 5637-5648) at 1:2 ratio (0.5×10^5 CD8^+ T cells and 10^5 L1210-P1A-B7.1 cells per well in 48-well plates) in IMDM (GIBCO) containing 10% fetal bovine serum supplemented with L-arginine (0.55 mM, Merck), L-asparagine (0.24 mM, Merck), glutamine (1.5 mM, Merck), betamercaptoethanol (50 μM, Sigma), 50 UmL^−1 penicillin and […] (Life Technologies). Four days later, TCRP1A CD8^+ T cells were purified on a Lymphoprep gradient (StemCell) and 10^7 living cells were injected intravenously in 200 μL PBS in TiRP-tumor bearing mice on the day of randomization.
# Mice received a daily intra-peritoneal injection of alprenolol (5 mg/kg) or vehicle (PBS) from the day of ACT until the day of sacrifice.
# T cells were incubated with sunitinib (0.1, 0.3, 0.8, 2.5 or 4 μM) for 16 h as indicated. Mice received a daily dose of sunitinib (20 mg/kg) or vehicle (PBS) by oral gavage from the day of ACT until the day of sacrifice.
# TiRP tumor [3] = experiment: TiRP melanoma model with adoptive cell transfer of naïve P1A-specific CD8+ T cells; conditions: guanabenz 5 mg/kg i.p. daily with ACT of 2 million naïve T cells, 4 days after the ACT, vs control; FIG. 6
# Method: FIG. 6 is a histogram showing the tumor infiltration of P1A-specific CD8^+ T cells evaluated 4 days after ACT of naïve TCRP1A CD8^+ T cells by FACS in mice that received guanabenz (5 mg/kg, i.p.) or vehicle (PBS, i.p.). In the preceding experiments, before being transferred to TiRP-tumor bearing mice, the P1A-specific CD8^+ T were pre-activated in vitro by co-culture with irradiated L1210-P1A-B7.1 cells as described hereinabove. […] TiRP-tumor bearing mice were administered an adoptive cell transfer (ACT) of 2 million of naïve P1A-specific CD8^+ T cells and daily injections of guanabenz from the day of the ACT. […] Thus, when the mice were administered guanabenz, the transferred naïve CD8^+ T cells were properly primed and populated the tumor.
# B16F10 melanoma tumors = experiment: B16F10 transplanted melanoma model; conditions: guanabenz alone, 2.5 mg/kg i.p. daily from 7 days after inoculation, vs PBS and isotype; FIG. 9
# Method: Gender and age matched CD57BL/6 wild-type mice were used in the B16F10 transplanted melanoma model.
# Gender-matched, 7-9 weeks old CD57BL/6 wild-type mice were subcutaneously injected with 1 million of B16F10 tumor cells. Mice were randomized based on the tumor size one week after the injection of tumor cells. 7 days after tumor inoculation, daily injections of guanabenz (2.5 mg/kg, i.p.) or vehicle (PBS, i.p.) were administered to the mice. Mice then received 4 injections (intraperitoneally also referred to as i.p.) of a dose of 200 μg/mouse anti-PD-1 antibody (BioXcell, clone RMP1-14) or RatIgG2a isotype (clone 2A3, Bio-X-Cell) at 3-day intervals starting 1 day after guanabenz or vehicle administration.
smiles,measurement,setting,value
"NC(N)=N/N=C/c1c(Cl)cccc1Cl [guanabenz, 2-[(E)-(2,6-dichlorophenyl)methylideneamino]guanidine]",tumor growth,"[1]; 5 mg/kg i.p. daily from tumor size around 1000 mm^3 (day 1) to day 6, vs vehicle, FIG. 2A",inhibited tumor growth
same,tumor infiltration of CD8+ T cells (FACS),"[1]; 5 mg/kg i.p. daily, day of sacrifice (day 6), vs vehicle, FIG. 2B",increased
same,tumor growth,"TiRP tumor [2]; guanabenz 5 mg/kg i.p. daily with ACT of 10 million activated T cells, day 0 to day 18, vs ACT alone, FIG. 5A",significantly decreased
same,tumor infiltration of CD8+ T cells (P1A tetramer+ CD8+ T cells among total living cells and among total CD8+ T cells),"TiRP tumor [2]; guanabenz 5 mg/kg i.p. daily with ACT, 10 days after ACT, FIG. 5C-D",increased
same,apoptosis of the adoptively transferred CD8+ T cells,"TiRP tumor [2]; guanabenz 5 mg/kg i.p. daily with ACT, 10 days after ACT, FIG. 5E",reduced
same,percentage of CD69+ P1A-specific CD8+ T cells (T cell activation marker),"TiRP tumor [2]; guanabenz 5 mg/kg i.p. daily with ACT, 10 days after ACT, FIG. 5F",increased percentage
same,tumor weight on the day of sacrifice,"TiRP tumor [2]; guanabenz 5 mg/kg i.p. daily with ACT, day 18, vs ACT alone, FIG. 5B",significantly decreased
same,tumor infiltration of P1A-specific CD8+ T cells,TiRP tumor [3],significantly increased
same,growth of B16F10 melanoma tumors,B16F10 melanoma tumors,did significantly reduce
